Measurements: patent US20120302569A1, “PHENYL-THIAZOLYL INHIBITORS OF PRO-MATRIX METALLOPROTEINASE ACTIVATION” (priority 2011, published 2012)
Counter-ions that a name gives are not always drawn.

Columns and labels:
[1] = biological target: T1, proMMP9(20-445;ΔFnII) (SEQ ID NO:6) (Homo sapiens, UniProt P14780, DEL216-390); assay: ThermoFluor with proMMP9(20-445;ΔFnII); conditions: read-out: proMMP9(20-445; ΔFnII) (SEQ ID NO: 6) binding
T1 construct: start methionine (N); made in house; host or cells: E. coli BL21(DE3) RIL
T1 sequence (P14780 with tags, fused parts or gaps DEL216-390): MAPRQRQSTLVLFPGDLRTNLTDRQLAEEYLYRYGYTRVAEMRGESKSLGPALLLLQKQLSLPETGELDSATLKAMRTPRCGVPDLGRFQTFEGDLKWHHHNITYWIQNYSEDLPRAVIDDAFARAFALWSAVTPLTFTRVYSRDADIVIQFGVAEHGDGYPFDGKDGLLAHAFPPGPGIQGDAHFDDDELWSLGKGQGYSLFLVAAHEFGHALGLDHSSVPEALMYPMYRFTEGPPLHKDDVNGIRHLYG
Procedure: (§1) The ThermoFluor® (TF) assay is a 384-well plate-based binding assay that measures thermal stability of proteins (Biomol Screen 2001, 6, 429-40; Biochemistry 2005, 44, 5258-66). The experiments were carried out using instruments available from Johnson & Johnson Pharmaceutical Research & Development, LLC. TF dye used in all experiments was […] (1,8-ANS) (Invitrogen: A-47).
(§2) Compounds were arranged in a pre-dispensed plate (Greiner Bio-one: 781280), wherein compounds were serially diluted in 100% DMSO across 11 columns within a series. Columns 12 and 24 were used as DMSO reference and contained no compound. For multiple compound concentration-response experiments, the compound aliquots (50 nL) were robotically predispensed directly into black 384-well polypropylene PCR microplates (Abgene: TF-0384/k) using a Cartesian Hummingbird liquid handler (DigiLab, Holliston, Mass.). Following compound dispense, protein and dye solutions were added to achieve the final assay volume of 3 μL. The assay solutions were overlayed with 1 μL of silicone oil (Fluka, type DC 200: 85411) to prevent evaporation.
(§3) Assay plates were robotically loaded onto a thermostatically controlled PCR-type thermal block and then heated from 40 to 90° C. at a ramp-rate of 1° C./min for all experiments. Fluorescence was measured by continuous illumination with UV light (Hamamatsu LC6) supplied via fiber optics and filtered through a band-pass filter (380-400 nm; >6 OD cutoff). Fluorescence emission of the entire 384-well plate was detected by measuring light intensity using a CCD camera (Sensys, Roper Scientific) filtered to detect 500±25 nm, resulting in simultaneous and independent readings of all 384 wells. A single image with 20-sec exposure time was collected at each temperature, and the sum of the pixel intensity in a given area of the assay plate was recorded vs temperature and fit to standard equations to yield the Tm (J Biomol Screen 2001, 6, 429-40).
(§4) Thermodynamic parameters necessary for fitting compound binding for each proMMP were estimated by differential scanning calorimetry (DSC) and from ThermoFluor® data. The heat capacity of unfolding for each protein was estimated from the molecular weight and from ThermoFluor® dosing data.
ThermoFluor® with proMMP9(20-445;ΔFnII) (SEQ ID NO:6)
The protein sample preparations included a desalting buffer exchange step via a PD-10 gravity column (GE Healthcare). The desalting buffer exchange was performed prior to diluting the protein to the final assay concentration of 2.8 μM proMMP9(20-445;ΔFnII) (SEQ ID NO:6). The concentration of proMMP9(20-445;ΔFnII) (SEQ ID NO:6) was determined spectrophotometrically based on a calculated extinction coefficient of ε280=39880 M^−1cm^−1, a calculated molecular weight of 28.2 kDa, and calculated pI of 5.5. ThermoFluor® reference conditions were define as follows: 80 μg/mL (2.8 μM) proMMP9(20-445;ΔFnII) (SEQ ID NO:6), 50 μM 1,8-ANS, pH 7.0 Buffer (50 mM HEPES pH 7.0, 100 mM NaCl, 0.001% Tween-20, 2.5 mM MgCl2, 300 μM CaCl2). The thermodynamic parameters for proMMP9(20-445;ΔFnII) (SEQ ID NO:6) are as follows: Tm (° C.)=72 (+/−0.1), ΔUH(Tm) (cal mol^−1)=160000(+/−5000), ΔUS(Tm) (cal mol^−1 K^−1)=434, ΔUCp (cal mol^−1 K^−1)=2400.

[2] = biological target: T2, proMMP9(67-444;ΔFnII) (SEQ ID NO:5) (Homo sapiens, UniProt P14780, DEL216-390); assay: ThermoFluor with proMMP9(67-444;ΔFnII); conditions: read-out: proMMP9(67-444; ΔFnII) (SEQ ID NO: 5) binding
T2 construct: start methionine (N); made in house; host or cells: E. coli BL21(DE3) RIL
T2 sequence (P14780 with tags, fused parts or gaps DEL216-390): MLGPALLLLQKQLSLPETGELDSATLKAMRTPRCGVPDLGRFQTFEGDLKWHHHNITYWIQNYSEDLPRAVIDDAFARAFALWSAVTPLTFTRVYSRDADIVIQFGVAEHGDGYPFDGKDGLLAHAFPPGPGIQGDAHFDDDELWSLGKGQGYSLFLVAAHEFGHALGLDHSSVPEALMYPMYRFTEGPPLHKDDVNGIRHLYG
Procedure: as §1, §2, §3, §4
ThermoFluor® with proMMP9(67-444;ΔFnII) (SEQ ID NO:5)
The protein sample preparations had to include a desalting buffer exchange step via a PD-10 gravity column (GE Healthcare). The desalting buffer exchange was performed prior to diluting the protein to the final assay concentration of 3.5 μM proMMP9(67-444;ΔFnII) (SEQ ID NO:5). The concentration of proMMP9(67-444;ΔFnII) (SEQ ID NO:5) was determined spectrophotometrically based on a calculated extinction coefficient of ε280=33900 M^−1cm^−1, a calculated molecular weight of 22.6 kDa, and calculated pI of 5.20. ThermoFluor® reference conditions were defined as follows: 80 μg/mL (3.5 μM) proMMP9(67-444;ΔFnII) (SEQ ID NO:5), 50 μM 1,8-ANS, pH 7.0 Buffer (50 mM HEPES pH 7.0, 100 mM NaCl, 0.001% Tween-20, 2.5 mM MgCl2, 300 μM CaCl2). The thermodynamic parameters for proMMP9(67-444;ΔFnII) (SEQ ID NO:5) are as follows: Tm (° C.)=63 (+/−0.1), ΔUH(Tm) (cal mol^−1)=105000(+/−5000), ΔUS(Tm) (cal mol^−1 K^−1)=450, […].

[3] = biological target: T3, full-length proMMP9(1-707) (SEQ ID NO:1) (Homo sapiens, UniProt P14780, R574P); assay: proMMP9/MMP3 P126 Activation Assay; assay type: biochemical; conditions: proMMP9(1-707) from HEK293 cells activated by catalytic MMP3
T3 construct: made in house; host or cells: HEK293 (proMMP9, secreted); E. coli (MMP3)
T3 sequence (P14780 20-707 R574P): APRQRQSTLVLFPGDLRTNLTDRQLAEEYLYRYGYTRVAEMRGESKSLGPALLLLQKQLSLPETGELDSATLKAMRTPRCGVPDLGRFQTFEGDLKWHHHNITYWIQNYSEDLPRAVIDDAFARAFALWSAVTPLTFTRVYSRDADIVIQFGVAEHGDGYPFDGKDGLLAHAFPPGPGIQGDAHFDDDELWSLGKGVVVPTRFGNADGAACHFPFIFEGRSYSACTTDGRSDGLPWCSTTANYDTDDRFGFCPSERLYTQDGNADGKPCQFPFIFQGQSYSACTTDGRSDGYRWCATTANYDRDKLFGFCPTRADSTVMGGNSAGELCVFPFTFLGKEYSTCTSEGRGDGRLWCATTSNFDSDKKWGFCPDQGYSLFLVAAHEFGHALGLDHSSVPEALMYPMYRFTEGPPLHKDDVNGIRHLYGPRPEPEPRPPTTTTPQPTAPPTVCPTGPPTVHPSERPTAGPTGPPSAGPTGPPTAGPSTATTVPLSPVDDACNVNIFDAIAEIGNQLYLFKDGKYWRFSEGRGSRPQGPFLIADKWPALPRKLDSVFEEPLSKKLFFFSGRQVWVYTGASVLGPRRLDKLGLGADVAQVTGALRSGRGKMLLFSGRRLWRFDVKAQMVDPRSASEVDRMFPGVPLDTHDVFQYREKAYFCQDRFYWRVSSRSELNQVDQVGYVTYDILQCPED
Procedure: proMMP9/MMP3 P126 Activation Assay
The reaction volume was 50 μL. […] Reactivity of residual MMP3 towards P-126 substrate was minimal under these conditions.

Row | SMILES | Kd [1] [nM] | Kd [2] [nM] | IC50 [3] [nM]
1 | CC(C)Oc1ccc(F)cc1Nc1nc(-c2ccc(OCCN3CCOCC3)cc2)cs1 [Example 65, N-(5-fluoro-2-isopropoxyphenyl)-4-(4-(2-morpholinoethoxy)phenyl)thiazol-2-amine.TFA] | > 19000 | 4900 | ≥ 20000
2 | COc1ccc(F)cc1Nc1nc(-c2ccc(OCCN3CCOCC3)cc2)cs1 [Example 66, N-(5-fluoro-2-methoxyphenyl)-4-(4-(2-morpholinoethoxy)phenyl)thiazol-2-amine.TFA] | > 19000 | 2900 | 1800
3 | NS(=O)(=O)c1ccc(OC(F)(F)F)c(Nc2nc(-c3ccc(OCCN4CCC(F)CC4)cc3)cs2)c1 [Example 41, 3-((4-(4-(2-(4-fluoropiperidin-1-yl)ethoxy)phenyl)thiazol-2-yl)amino)-4-(trifluoromethoxy)benzenesulfonamide.TFA] | 330 | 180 | 620
4 | NS(=O)(=O)c1ccc(OC(F)(F)F)c(Nc2nc(-c3ccc(OCCN4CCOCC4)cc3)cs2)c1 [Example 30, 3-((4-(4-(2-Morpholinoethoxy)phenyl)thiazol-2-yl)amino)-4-(trifluoromethoxy)benzenesulfonamide.TFA] | 1200 | 1300 | 1100
5 | COc1ccc(F)cc1Nc1nc(-c2ccc(CN3CCN(C(C)C)CC3)cc2)cs1 [Example 63, N-(5-fluoro-2-methoxyphenyl)-4-(4-((4-isopropylpiperazin-1-yl)methyl)phenyl)thiazol-2-amine.TFA] | 4600 | 960 | 250
6 | CCOc1ccncc1Nc1nc(-c2ccc(C3=CCNCC3)cc2)cs1 [Example 20, N-(4-Ethoxypyridin-3-yl)-4-(4-(1,2,3,6-tetrahydropyridin-4-yl)phenyl)thiazol-2-amine.TFA] | 380 | 69 | 92
7 | CC(C)Cc1ccc(C(N)=O)cc1Nc1nc(-c2ccc(OCCN3CCC(F)CC3)cc2)cs1 [Example 40, 3-((4-(4-(2-(4-fluoropiperidin-1-yl)ethoxy)phenyl)thiazol-2-yl)amino)-4-isobutylbenzamide.TFA] | 190 | 660 | 1300
8 | COc1ccc(F)cc1Nc1nc(-c2ccc(CN3CC[C@@H](F)C3)cc2)cs1 [Example 61, (R)—N-(5-fluoro-2-methoxyphenyl)-4-(4-((3-fluoropyrrolidin-1-yl)methyl)phenyl)thiazol-2-amine.TFA] | 53000 | 5600 | 1500
9 | COc1ccc(F)cc1Nc1nc(-c2ccc(CN3CCC(F)CC3)cc2)cs1 [Example 62, N-(5-fluoro-2-methoxyphenyl)-4-(4-((4-fluoropiperidin-1-yl)methyl)phenyl)thiazol-2-amine.TFA] | 45000 | 5700 | 1600
10 | CCOc1ccncc1Nc1nc(-c2ccc(OCCN3CCC(F)CC3)cc2)cs1 [Example 36, N-(4-ethoxypyridin-3-yl)-4-(4-(2-(4-fluoropiperidin-1-yl)ethoxy)phenyl)thiazol-2-amine.TFA] | 1800 | 96 | 92

Now those with a lower Kd [1], led by results:

Row | Kd [1] [nM] | Kd [2] [nM] | IC50 [3] [nM] | SMILES
11 | 34 | 94 | 89 | CCN1CCN(c2ccc(-c3csc(Nc4cc(C(N)=O)ccc4OC(C)C)n3)cc2)CC1 [Example 9, 3-((4-(4-(4-Ethylpiperazin-1-yl)phenyl)thiazol-2-yl)amino)-4-isopropoxybenzamide.TFA]
12 | 100 | 390 | 430 | CC(C)Oc1ccc(C(N)=O)cc1Nc1nc(-c2ccc(OCCN3CCC(F)(F)CC3)cc2)cs1 [Example 32, 3-((4-(4-(2-(4,4-Difluoropiperidin-1-yl)ethoxy)phenyl)thiazol-2-yl)amino)-4-isopropoxybenzamide.TFA]
13 | 110 | 100 | 85 | CCN1CCN(c2ccc(-c3csc(Nc4cc(S(N)(=O)=O)ccc4OC(C)C)n3)cc2)CC1 [Example 4, 3-((4-(4-(4-Ethylpiperazin-1-yl)phenyl)thiazol-2-yl)amino)-4-isopropoxybenzenesulfonamide.TFA]
14 | 30 | 53 | 140 | CC(C)Oc1ccc(S(N)(=O)=O)cc1Nc1nc(-c2ccc(CN3CCC(F)CC3)cc2)cs1 [Example 55, 3-((4-(4-((4-fluoropiperidin-1-yl)methyl)phenyl)thiazol-2-yl)amino)-4-isopropoxybenzenesulfonamide.TFA]
15 | 74 | 270 | 360 | NC(=O)c1ccc(OC(F)(F)F)c(Nc2nc(-c3ccc(OCCN4CCC(F)CC4)cc3)cs2)c1 [Example 37, 3-((4-(4-(2-(4-fluoropiperidin-1-yl)ethoxy)phenyl)thiazol-2-yl)amino)-4-(trifluoromethoxy)benzamide.TFA]
16 | 75 | 110 | 100 | CC(C)Oc1ccc(S(N)(=O)=O)cc1Nc1nc(-c2ccc(OCCN3CCOCC3)cc2)cs1 [Example 28, 4-Isopropoxy-3-((4-(4-(2-morpholinoethoxy)phenyl)thiazol-2-yl)amino)benzenesulfonamide.TFA]
17 | 98 | 180 | 300 | CC(C)Oc1ccc(S(N)(=O)=O)cc1Nc1nc(-c2ccc(CN3CCOCC3)cc2)cs1 [Example 59, 4-isopropoxy-3-((4-(4-(morpholinomethyl)phenyl)thiazol-2-yl)amino)benzenesulfonamide.TFA]
